B1: IL-4: interleukin, cytokine (protein, UniProt P05112 25-153, looked up)
Interleukin-4: HKCDITLQEIIKTLNSLTEQKTLCTELTVTDIFAASKNTTEKETFCRAATVLRQFYSHHEKDTRCLGATAQQFHRHKQLIRFLKRLDRNLWGLAGLNSCPVKEANQSTLENFLERLKTIMREKYSKCSS

Legend:
[1] = system: IEL adhesion to 16E6.A5 epithelial cells; assay: IEL adhesion to 16E6.A5 epithelial cell monolayers; type: cell-based, human; details: epithelial cell monolayers pretreated with cytokine
Procedure: Monolayers of adherent cells were grown in flat bottomed 96-well Linbro tissue culture plates. 10^4 adherent cells in 100 μl complete media were added per well and allowed to grow for two to three days until they reached confluence. Just prior to the addition of IEL or transfected COS 7 cells, the adherent cell monolayers were washed with assay media. To label IEL and COS-7 cells, 25 μg of 2′,7′-bis-(2-carboxyethyl)-5 (and -6)-carboxyfluorescein (BCECF-AM, Molecular Probes, Inc., Eugene, Oreg.) was diluted in 5 μl DMSO and added to a suspension of 5×10^6/ml IEL or COS-7 cells in complete media. The cells were incubated at 37° C. for 25 minutes then washed twice in assay media (PBS containing 1 mM CaCl2, 2 mM MgCl2 and 10 mM HEPES). After washing, 50,000 labeled IEL or COS-7 cells in 100 μl of assay media were added to the adherent cell monolayers. IEL or COS-7 cells were allowed to settle onto adherent cell monolayers for 25 or 40 min. at 37° C. Unbound cells were removed by flicking media from the plate. Bound cells were detected using a Fluorescence plate reader (IDEXX Co., Portland, Me.). If antibody blocking was performed, the IEL, COS-7 cells, epithelial cell monolayers, or L-M monolayers were pre-incubated with a 1:250 dilution of ascites fluid or 10 μg/ml of purified mAb for five minutes at 37° C. prior to encounter with the second cell type. At least four replicates were performed. The % cells bound was calculated by reading the fluorescence units obtained after unbound cells were washed off, dividing this number by the input fluorescence units and multiplying by 100. […] In adhesion assays where divalent cations were varied, the IEL were washed with Ca^++ and Mg^++ free Hank's balanced salt solution (HBSS) and pre-equilibrated with HBSS containing the indicated concentrations of MgCl2, MnCl2, or CaCl2 for 10 min. at 37° C. prior to incubation with 16E6.A5 monolayers which had been washed with Ca^++ and Mg^++ free HBSS. Disruption of T84 cell intercellular tight junctions.
The 16E6.A5 cell line was derived by immortalization of the 76N normal epithelial cell line through transfection of the E6 and E7 genes of human papilloma virus (by V. Band, Tufts University, publically available). Monolayers of these adherent cells are grown in flat-bottomed 96-well Linbro tissue culture plates. […] Bound cells are detected using a Fluorescence plate reader (IDEXX Co., Portland Me.). […] The % cells bound is calculated by reading the fluorescence units obtained after unbound cells are washed off and dividing this number by the input fluorescence units obtained after adding 50,000 cells/well and multiplying by 100. Serial dilutions of labeled cells have shown that as few as 1000 cells can be detected in the linear range.

[2] = system: homotypic E-cadherin adhesion; details: soluble recombinant protein produced in insect cells; cited from earlier work
[3] = system: integrin expression on IEL lines; assay: FACS analysis of integrin expression on cultured IEL; type: cell-based, human; details: culture of IEL lines with TGF-β1
Description: Human intestinal tissue was obtained from fatal accident organ donors or from adult patients undergoing resection for colorectal carcinoma, from sections at least 10 cm away from macroscopically detectable lesions. IEL were isolated as described previously (Davies M. D. J. et al. (1981) Gut 22:481; Parker C. et al. (1992) Proc. Natl. Acad. Sci. USA 89:1924). once isolated, the IEL were stimulated with phytohemagglvtinin-P (PHA:Difco) and irradiated feeder cells (80% peripheral blood mononuclear cells and 20% JY lymphoblastoid cells) in Yssel's medium (Yssel H. et al. (1984) J. Immunol. Methods 72:219) containing 2 nM recombinant interleukin (IL)-2 (gift of Ajinomoto, Kawasaki, Japan), 4% (vol/vol) conditioned medium (Brenner M. et al. (1987) J. Immunol. 138:1502), 4% (vol/vol) fetal calf serum (Hyclone), and 50 AM 2-mercaptoethanol at 10% Co2. […] Two different anti-CD8 mAb (OKT8, CD8α; and T8/2T85H7, CD8β) were used to discriminate between expression of the CD8 αα homodimer and the CD8 αβ heterodimer. In agreement with previously reported data (Jarry A. et al. (1990) Eur. J. of Immunol. 20(5):1097), 10% of the CD8^+ cells expressed the homodimer. Thus, the lines were thought to be highly purified IEL preparations. Long term culture of the 032891 and 390I IEL lines was maintained by intermittent restimulation with PHA and irradiated feeder cells. In single color FACS analysis, the long term 032891 cell line was 99% CD3^+, 99% T cell receptor αβ positive, and 99% CD8 αβ positive. The 390I cell line was 99% CD3^+, 99% T cell receptor αβ positive, and 99% CD8 αβ positive and 6% CD4 positive. […]
FACS analysis was performed by suspending 2.5×10^5 cells in 100 μl of staining buffer (PBS, 1% BSA, 4% human serum, 0.02% NaN3) containing saturating concentrations of mAbs and incubating for 1 hr. at 4° C. […] Biotin-conjugated mAbs were used to stain the second molecule which was visualized by PE-conjugated streptavidin (Becton Dickinson & Co., Mountain View, Calif. Viable cells were analyzed using the FACScan or FACSort flow cytometer (Becton Dickinson & Co.).

| Molecule | effect on IEL-to-epithelial cell adhesion [1] | also measured |
| --- | --- | --- |
| IFN-γ: interferon, cytokine | increased adhesion |  |
| IL-1B: interleukin, cytokine | no effect |  |
| Recombinant human E-cadherin: recombinant human E-cadherin containing nearly the entire extracellular domain, produced in insect cells (Herrenknecht and Kemler) |  | blocking of homophilic E-cadherin mediated cell-cell binding [2]: failed to block |
| TGF-β1: transforming growth factor-beta 1 |  | expression of α^Eβ7 on IEL lines [3]: dramatically up-regulated; expression of α^Lβ2 on IEL lines [3]: down regulated; expression of β1 and its associated α chains on IEL lines [3]: little effect |
| TNF-α | no effect |  |
| B1 | no effect |  |
